Structures are written as SMILES. In brackets after ≈: the same amount, converted by molar mass. Numbered stars: 1 amine (or outer) side, 2 acyl side, 3 side chain; on linkers, the order of the positions; unused ones are H or OH. Bridge positions count the residues as written; N and C are the ends. Square brackets hold non-standard residues; d marks the D form. Peptide text beside a SMILES is read from it. * marks the point of attachment. Phe(3R-OH) = O=C([C@@H](N[*:1])[C@H](O[*:3])c1ccccc1)[*:2]; NMeTrp(4-OMe) = CN[C@@H](Cc1c[nH]c2cccc(OC)c12)C(=O)O; NMeaIle = CC[C@@H](C)[C@H](NC)C(=O)O; NMe2Val = CC(C)[C@@H](C(=O)*)N(C)C; NMeT = CN[C@H](C(=O)O)[C@@H](C)O; NMeL = CN[C@@H](CC(C)C)C(=O)O; NMeV = CN[C@H](C(=O)O)C(C)C

The test has as its system Mycobacterium tuberculosis. In words: Antimycobacterial activity against Mycobacterium tuberculosis H37Rv ATCC 27294 by Alamar blue assay. It is filed as functional. In general terms: The colour change of resazurin is a common sign of viable cells or microbes.

For the molecule `COc1cccc2[nH]cc(C[C@H]3C(=O)N[C@@H](C(C)C)C(=O)N[C@@H]([C@H](O)c4ccccc4)C(=O)N[C@@H](C(C)C)C(=O)O[C@H](C)[C@H](NC(=O)[C@H](C(C)C)N(C)C(=O)[C@@H](NC(=O)[C@H](C(C)C)N(C)C)C(C)C)C(=O)N(C)[C@@H]([C@@H](C)O)C(=O)N[C@@H](C(C)C)C(=O)N(C)[C@@H](CC(C)C)C(=O)N[C@@H](C(C)C)C(=O)N(C)[C@@H](C(C)C)C(=O)N3C)c12` (NMe2Val-V[NMeV]T[NMeT]V[NMeL]V[NMeV][NMeTrp(4-OMe)]V[Phe(3R-OH)]V; ester 3-C), the MIC – broadly, the lowest concentration that inhibits growth of the organism – is 0.15 µg/mL (≈ 0.0946 µM).

Molecule `CC[C@@H](C)[C@@H](C(=O)N[C@@H]1C(=O)N(C)[C@@H]([C@@H](C)O)C(=O)N[C@@H](C(C)C)C(=O)N(C)[C@@H](CC(C)C)C(=O)N[C@@H](C(C)C)C(=O)N(C)[C@@H](C(C)C)C(=O)N(C)[C@@H](Cc2c[nH]c3cccc(OC)c23)C(=O)N[C@@H](C(C)C)C(=O)N[C@@H](Cc2ccccc2)C(=O)N[C@@H](C(C)C)C(=O)O[C@@H]1C)N(C)C(=O)[C@@H](NC(=O)[C@H](C(C)C)N(C)C)C(C)C` displayed an MIC of 0.55 µg/mL (≈ 0.347 µM).

Molecule `CC[C@@H](C)[C@@H](C(=O)N[C@@H]1C(=O)N(C)[C@@H]([C@@H](C)O)C(=O)N[C@@H](C(C)C)C(=O)N(C)[C@@H](CC(C)C)C(=O)N[C@@H](C(C)C)C(=O)N(C)[C@@H](C(C)C)C(=O)N(C)[C@@H](Cc2c[nH]c3cccc(OC)c23)C(=O)N[C@@H](C(C)C)C(=O)N[C@@H]([C@H](O)c2ccccc2)C(=O)N[C@@H](C(C)C)C(=O)O[C@@H]1C)N(C)C(=O)[C@@H](NC(=O)[C@H](C(C)C)N(C)C)C(C)C` (NMe2Val-V[NMeaIle]T[NMeT]V[NMeL]V[NMeV][NMeTrp(4-OMe)]V[Phe(3R-OH)]V; ester 3-C) yielded an MIC of 0.26 µg/mL (≈ 0.162 µM).

As to `CC[C@@H](C)[C@@H](C(=O)N[C@@H]1C(=O)N(C)[C@@H]([C@@H](C)O)C(=O)N[C@@H](C(C)C)C(=O)N(C)[C@@H](CC(C)C)C(=O)N[C@@H](C(C)C)C(=O)N(C)[C@@H](C(C)C)C(=O)N(C)[C@@H](Cc2c[nH]c3cccc(OC)c23)C(=O)N[C@@H](C(C)C)C(=O)N[C@@H]([C@H](O)c2ccccc2)C(=O)N[C@@H]([C@@H](C)CC)C(=O)O[C@@H]1C)N(C)C(=O)[C@@H](NC(=O)[C@H](C(C)C)N(C)C)C(C)C`, the MIC worked out at 0.26 µg/mL (≈ 0.161 µM).

In turn, `CC[C@@H](C)[C@@H](C(=O)N[C@@H]1C(=O)N(C)[C@@H]([C@@H](C)O)C(=O)N[C@@H](C(C)C)C(=O)N(C)[C@@H](CC(C)C)C(=O)N[C@@H](C(C)C)C(=O)N(C)[C@@H](C(C)C)C(=O)N(C)[C@@H](Cc2c[nH]c3cccc(OC)c23)C(=O)N[C@@H]([C@@H](C)CC)C(=O)N[C@@H]([C@H](O)c2ccccc2)C(=O)N[C@@H](C(C)C)C(=O)O[C@@H]1C)N(C)C(=O)[C@@H](NC(=O)[C@H](C(C)C)N(C)C)C(C)C` returned an MIC of 0.26 µg/mL (≈ 0.161 µM).

`CC[C@@H](C)[C@@H](C(=O)N[C@@H]1C(=O)N(C)[C@@H]([C@@H](C)O)C(=O)N[C@@H]([C@@H](C)CC)C(=O)N(C)[C@@H](CC(C)C)C(=O)N[C@@H](C(C)C)C(=O)N(C)[C@@H](C(C)C)C(=O)N(C)[C@@H](Cc2c[nH]c3cccc(OC)c23)C(=O)N[C@@H](C(C)C)C(=O)N[C@@H]([C@H](O)c2ccccc2)C(=O)N[C@@H](C(C)C)C(=O)O[C@@H]1C)N(C)C(=O)[C@@H](NC(=O)[C@H](C(C)C)N(C)C)C(C)C` showed a minimal inhibitory concentration (MIC) of 0.26 µg/mL (≈ 0.161 µM).

`COc1cccc2[nH]cc(C[C@H]3C(=O)N[C@@H](C(C)C)C(=O)N[C@@H](Cc4ccccc4)C(=O)N[C@@H](C(C)C)C(=O)O[C@H](C)[C@H](NC(=O)[C@H](C(C)C)N(C)C(=O)[C@@H](NC(=O)[C@H](C(C)C)N(C)C)C(C)C)C(=O)N(C)[C@@H]([C@@H](C)O)C(=O)N[C@@H](C(C)C)C(=O)N(C)[C@@H](CC(C)C)C(=O)N[C@@H](C(C)C)C(=O)N(C)[C@@H](C(C)C)C(=O)N3C)c12` (NMe2Val-V[NMeV]T[NMeT]V[NMeL]V[NMeV][NMeTrp(4-OMe)]VFV; ester 3-C) showed an MIC of 0.13 µg/mL (≈ 0.0828 µM).
